Laboratory results reported in patent publication US10294217B2, “Fluoroindole derivatives as muscarinic M1 receptor positive allosteric modulators” (Suven Life Sciences Limited, priority 2015, dated 2019).
Counter-ions that a name gives are not always drawn.

Molecular target: human Muscarinic M1 receptor (Homo sapiens (Human), UniProt P11229)
Assay: Allosteric potency EC50 for muscarinic M1 receptor (CHO cells, pCRE-Luc reporter)
Assay type: cell-based
Settings: hM1 PAM EC50, in presence of EC20 of acetylcholine; luciferase activity, 4 hours
Procedure: Determination of Allosteric Potency EC50 Values for Muscarinic M1 Receptor:
A stable CHO cell line expressing recombinant human Muscarinic M1 receptor and pCRE-Luc reporter system was used for cell-based assay. The assay offers a non-radioactive based approach to determine binding of a compound to GPCRs. In this specific assay, the level of intracellular cyclic AMP which is modulated by activation or inhibition of the receptor is measured. The recombinant cells harbor luciferase reporter gene under the control of cAMP response element.
The above cells were grown in 96 well clear bottom white plates in Hams F12 medium containing 10% fetal bovine serum (FBS). Prior to the addition of compounds or standard agonist, cells were serum starved overnight. Increasing concentrations of test compounds were added along with EC20 of acetylcholine in OptiMEM medium to the cells. The incubation was continued at 37° C. in CO2 incubator for 4 hours. Medium was removed and cells were washed with phosphate buffered saline. The cells were lysed and luciferase activity was measured in a Luminometer. Luminescence units were plotted against the compound concentrations using Graphpad software. EC50 values of the compounds were defined as the concentration required in stimulating the luciferase activity by 50% in presence of EC20 of acetylcholine and the results are provided in table 1.
`O=C(N[C@H]1CCNC[C@H]1F)c1cn(Cc2ccnc(Cl)c2)c2c(F)ccc(F)c12` (racemic) [Example 28, cis-N-(3-Fluoropiperidin-4-yl)-1-(2-chloropyridin-4-ylmethyl)-4,7-difluoro-1H-indole-3-carboxamide hydrochloride (Racemate)] showed an EC50 of 1570 nM. `O=C(N[C@@H]1CCNC[C@H]1F)c1cn(Cc2ccnc(F)c2)c2c(F)ccc(F)c12` (single isomer, unassigned; isomer-i) [Example 24, trans-N-(3-Fluoropiperidin-4-yl)-1-(2-fluoropyridin-4-ylmethyl)-4,7-difluoro-1H-indole-3-carboxamide hydrochloride (Isomer-I)] gave an EC50 of 1390 nM. In the case of `O=C(N[C@H]1CCNC[C@H]1F)c1cn(Cc2ccncc2F)c2c(F)ccc(F)c12` (single isomer, unassigned; isomer-i) [Example 26, cis-N-(3-Fluoropiperidin-4-yl)-1-(5-fluoropyridin-4-ylmethyl)-4,7-difluoro-1H-indole-3-carboxamide hydrochloride (Isomer-I)], the EC50 is reported as 1100 nM. With `O=C(N[C@H]1CCNC[C@H]1F)c1cn(Cc2ccnc(Cl)c2)c2cccc(F)c12` (single isomer, unassigned; isomer-i) [Example 27, cis-N-(3-Fluoropiperidin-4-yl)-1-(2-chloropyridin-4-ylmethyl)-4-fluoro-1H-indole-3-carboxamide hydrochloride (Isomer-I)] the EC50 was 1690 nM. With `O=C(N[C@H]1CCNC[C@H]1F)c1cn(Cc2ccnc(Cl)c2)c2c(F)ccc(F)c12` (single isomer, unassigned; isomer-i) [Example 29, cis-N-(3-Fluoropiperidin-4-yl)-1-(2-chloropyridin-4-ylmethyl)-4,7-difluoro-1H-indole-3-carboxamide hydrochloride (Isomer-I)] the EC50 was 2920 nM. Compound `O=C(N[C@H]1CCNC[C@H]1F)c1cn(Cc2ccc(F)cc2)c2cccc(F)c12` (single isomer, unassigned; isomer-i) [Example 30, cis-N-(3-Fluoropiperidin-4-yl)-1-(4-fluorobenzyl)-4-fluoro-1H-indole-3-carboxamide hydrochloride (Isomer-I)] has an EC50 of 1080 nM. Work on `O=C(N[C@H]1CCNC[C@H]1F)c1cn(Cc2ccc(F)cc2)c2c(F)ccc(F)c12` (single isomer, unassigned; isomer-i) [Example 31, cis-N-(3-Fluoropiperidin-4-yl)-1-(4-fluorobenzyl)-4,7-difluoro-1H-indole-3-carboxamide hydrochloride (Isomer-I)] yielded an EC50 of 1610 nM. Work on `O=C(N[C@H]1CCNC[C@H]1F)c1cn(Cc2ccccc2F)c2cccc(F)c12` (single isomer, unassigned; isomer-i) [Example 33, cis-N-(3-Fluoropiperidin-4-yl)-1-(2-fluorobenzyl)-4-fluoro-1H-indole-3-carboxamide hydrochloride (Isomer-I)] yielded an EC50 of 1370 nM. Compound `O=C(N[C@H]1CCNC[C@H]1F)c1cn(Cc2ccc(Cl)cc2)c2cccc(F)c12` (single isomer, unassigned; isomer-i) [Example 34, cis-N-(3-Fluoropiperidin-4-yl)-1-(4-chlorobenzyl)-4-fluoro-1H-indole-3-carboxamide hydrochloride (Isomer-I)] has an EC50 of 1390 nM. In the case of `COc1cccc(Cn2cc(C(=O)N[C@H]3CCNC[C@H]3F)c3c(F)cccc32)c1` (single isomer, unassigned; isomer-i) [Example 35, cis-N-(3-Fluoropiperidin-4-yl)-4-fluoro-1-(3-methoxybenzyl)-1H-indole-3-carboxamide hydrochloride (Isomer-I)], the EC50 is reported as 1480 nM. With `COc1ccc(Cn2cc(C(=O)N[C@H]3CCNC[C@H]3F)c3c(F)cccc32)cc1` (single isomer, unassigned; isomer-i) [Example 38, cis-N-(3-Fluoropiperidin-4-yl)-1-(4-methoxybenzyl)-4-fluoro-1H-indole-3-carboxamide hydrochloride (Isomer-I)] the EC50 was 1450 nM. Compound `COc1ccc(Cn2cc(C(=O)N[C@H]3CCNC[C@H]3F)c3c(F)ccc(F)c32)cc1` (single isomer, unassigned; isomer-i) [Example 39, cis-N-(3-Fluoropiperidin-4-yl)-1-(4-methoxybenzyl)-4,7-difluoro-1H-indole-3-carboxamide hydrochloride (Isomer-I)] has an EC50 of 1480 nM. `O=C(N[C@H]1CCNC[C@H]1F)c1cn(Cc2ccnc(F)c2)c2cccc(F)c12` (single isomer, unassigned; isomer-i) [Example 44, cis-N-(3-Fluoropiperidin-4-yl)-1-(2-fluoropyridin-4-ylmethyl)-4-fluoro-1H-indole-3-carboxamide hydrochloride (Isomer-I)] gave an EC50 of 1310 nM. Compound `O=C(N[C@H]1CCNC[C@H]1F)c1cn(Cc2ccc3ncsc3c2)c2cccc(F)c12` (single isomer, unassigned; isomer-i) [Example 45, cis-N-(3-Fluoropiperidin-4-yl)-1-(benzothiazol-6-ylmethyl)-4-fluoro-1H-indole-3-carboxamide hydrochloride (Isomer-I)] has an EC50 of 1160 nM. `O=C(NC1CCNCC1F)c1cn(Cc2ccnc(F)c2)c2c(F)ccc(F)c12` (single isomer, unassigned; isomer-ii) [Example 23, cis-N-(3-Fluoropiperidin-4-yl-1-(2-fluoropyridin-4-ylmethyl)-4,7-difluoro-1H-indole-3-carboxamide hydrochloride (Isomer-II)] showed an EC50 of 1070 nM. Work on `O=C(N[C@@H]1CCNC[C@H]1F)c1cn(Cc2ccnc(F)c2)c2c(F)ccc(F)c12` (single isomer, unassigned; isomer-ii) [Example 25, trans-N-(3-Fluoropiperidin-4-yl)-1-(2-fluoropyridin-4-ylmethyl)-4,7-difluoro-1H-indole-3-carboxamide hydrochloride (Isomer-II)] yielded an EC50 of 1440 nM. `O=C(N[C@H]1CCNC[C@H]1F)c1cn(Cc2ccc(F)cc2)c2c(F)ccc(F)c12` (single isomer, unassigned; isomer-ii) [Example 32, cis-N-(3-Fluoropiperidin-4-yl)-1-(4-fluorobenzyl)-4,7-difluoro-1H-indole-3-carboxamide hydrochloride (Isomer-II)] gave an EC50 of 1590 nM. `COc1cccc(Cn2cc(C(=O)N[C@H]3CCNC[C@H]3F)c3c(F)cccc32)c1` (single isomer, unassigned; isomer-ii) [Example 36, cis-N-(3-Fluoropiperidin-4-yl)-4-fluoro-1-(3-methoxybenzyl)-1H-indole-3-carboxamide hydrochloride (Isomer-II)] showed an EC50 of 1350 nM. Compound `COc1ccc(Cn2cc(C(=O)N[C@H]3CCNC[C@H]3F)c3c(F)cccc32)cc1` (single isomer, unassigned; isomer-ii) [Example 37, cis-N-(3-Fluoropiperidin-4-yl)-1-(4-methoxybenzyl)-4-fluoro-1H-indole-3-carboxamide hydrochloride (Isomer-II)] has an EC50 of 1990 nM.

Same assay, conditions: in presence of EC20 of acetylcholine; luciferase activity, 4 hours; read-out: hM1 PAM EC50
With `Cn1cc(Cn2cc(C(=O)N[C@@H]3CCCC[C@H]3O)c3c(F)cccc32)cn1` [Example 3, N-[(1R,2R)-2-Hydroxycyclohexyl]-1-(1-methyl-1H-pyrazol-4-ylmethyl)-4-fluoro-1H-indole-3-carboxamide] the EC50 was 1640 nM. In the case of `Cn1nc(Cn2cc(C(=O)N[C@H]3CCCC[C@@H]3O)c3c(F)cccc32)c2ccccc21` [Example 4], the EC50 is reported as 1490 nM. For `O=C(N[C@H]1CCCC[C@@H]1O)c1cn(Cc2ccncc2F)c2cccc(F)c12` [Example 9, N-[(1S,2S)-2-Hydroxycyclohexyl]-1-(3-fluoropyridin-4-ylmethyl)-4-fluoro-1H-indole-3-carboxamide], the EC50 was 1420 nM. Compound `O=C(N[C@H]1CCCC[C@@H]1O)c1cn(Cc2ccnc(F)c2F)c2cccc(F)c12` [Example 13, N-[(1S,2S)-2-Hydroxycyclohexyl]-1-(2,3-difluoropyridin-4-ylmethyl)-4-fluoro-1H-indole-3-carboxamide] has an EC50 of 1380 nM. Compound `O=C(N[C@H]1CCCC[C@@H]1O)c1cn(Cc2ccc3ncsc3c2)c2cccc(F)c12` [Example 18, N-[(1S,2S)-2-Hydroxycyclohexyl]-1-(benzothiazol-6-ylmethyl)-4-fluoro-1H-indole-3-carboxamide] has an EC50 of 160 nM. For `O=C(N[C@H]1CCCC[C@@H]1O)c1cn(Cc2cnn(CCF)c2)c2cccc(F)c12` [Example 19, N-[(1S,2S)-2-Hydroxycyclohexyl]-1-(1-(2-fluoroethyl)-1H-pyrazol-4-ylmethyl)-4-fluoro-1H-indole-3-carboxamide], the EC50 was 744 nM.

System: not listed separately
Assay: Rodent brain penetration study
Assay type: in vivo, Male Wistar rats
Settings: male, Wistar, rat, oral; 3 mg/kg, p.o.; brain-plasma ratio; read-out: Single dose Rat Brain Penetration (Cb/Cp)
Procedure: WO2015044072A1 patent application discloses indole derivatives as M1 PAM compounds. […] This makes these compounds less ideal for the treatment of CNS disorders.
Rodent Brain Penetration Study
Male Wistar rats (260±40 grams) were used as experimental animals. Three animals were housed in each cage. Animals were given water and food ad libitum throughout the experiment and maintained on a 12 hours light/dark cycle.
Brain penetration was determined in discrete manner in rats. One day prior to dosing day, male Wistar rats were acclimatized and randomly grouped according to their weight. At each time point (0.5, 1 and 2 hours) n=3 animals were used.
The test compounds were suitably preformulated and administered orally at (free base equivalent) 3 mg/kg. Blood samples were removed via cardiac puncture by using isoflurane anesthesia. The animals were sacrificed to collect brain tissue. Plasma was separated and brain samples were homogenized and stored frozen at ˜20° C. until analysis. The concentrations of the test compounds in plasma and brain were determined using LC-MS/MS method.
The test compounds were quantified in plasma and brain homogenate by qualified LC-MS/MS method using suitable extraction technique. The test compounds were quantified in the calibration range of 1-500 ng/mL in plasma and brain homogenate. Study samples were analyzed using calibration samples in the batch and quality control samples spread across the batch.
With `O=C(N[C@H]1CCNC[C@H]1F)c1cn(Cc2ccc(F)cc2)c2cccc(F)c12` (single isomer, unassigned; isomer-i) [Example 30, cis-N-(3-Fluoropiperidin-4-yl)-1-(4-fluorobenzyl)-4-fluoro-1H-indole-3-carboxamide hydrochloride (Isomer-I)] the Kp was 1.05 ± 0.53. For `COc1cccc(Cn2cc(C(=O)N[C@H]3CCNC[C@H]3F)c3c(F)cccc32)c1` (single isomer, unassigned; isomer-i) [Example 35, cis-N-(3-Fluoropiperidin-4-yl)-4-fluoro-1-(3-methoxybenzyl)-1H-indole-3-carboxamide hydrochloride (Isomer-I)], the Kp was 0.72 ± 0.03. `COc1ccc(Cn2cc(C(=O)N[C@H]3CCNC[C@H]3F)c3c(F)cccc32)cc1` (single isomer, unassigned; isomer-i) [Example 38, cis-N-(3-Fluoropiperidin-4-yl)-1-(4-methoxybenzyl)-4-fluoro-1H-indole-3-carboxamide hydrochloride (Isomer-I)] showed a Kp of 1.03 ± 0.17.
